Source: PubChem BioAssay AID2252 (Southern Research Specialized Biocontainment Screening …, 2010)
Several values for one entry are separate records, joined by “and”; a condition that tells them apart may be missing. Equal entries are not always repeated.

Test system: THP-1 viability, CellTiter-Glo luminescence, 72 h
Experiment: PubChem AID 2252

| Structure (SMILES) | EC50 |
| --- | --- |
| O=C(Nc1ccc(Cl)cc1)N1CCCN(Cc2ccccc2F)C1 | 45.8 µM |
| Cc1ccc(C)c(N/C(N)=N/c2nc(C)cc(C)n2)c1 | 27 µM |
| Fc1ccc(Nc2nnc(C(F)(F)F)s2)cc1Cl | 18.5 µM |
| COc1ccc(Nc2cc(C)c3c(O)cccc3n2)cc1 | 8.86 µM |
| CN1CCN(C2Cc3cc(Cl)ccc3Sc3cc(F)ccc32)CC1 (stereo not given) | 8.2 µM |
| OC(CNCC1CCCO1)Cn1c2ccc(Cl)cc2c2cc(Cl)ccc21 (stereo not given) | 12.9 µM |
| N#C/C(=N\Nc1ccc([N+](=O)[O-])cc1)C(N)=S | 29 µM |
| O=C(O)c1ccc(NC2=C(Cl)C(=O)c3ccccc3C2=O)cc1 | 11.5 µM |
| O=C(CNC(=O)c1cccc(F)c1)N/N=C/c1ccc([N+](=O)[O-])s1 | 25.6 µM |
| CCC(=O)c1ccc(OCC(O)CNCCc2ccc(Cl)cc2)cc1 (stereo not given) | 28.9 µM |
| CS(=O)(=O)c1ccc([C@@H](O)[C@@H](CF)NC(=O)C(Cl)Cl)cc1 | < 0.1 µM |
| CCOC(=O)COc1cccc2c(=O)n(CC(=O)N3CCCCC3)ccc12 | 24.5 µM |
| CC(C(=O)NC1C=CS(=O)(=O)C1)N1C(=O)/C(=C/c2ccc(Cl)cc2)SC1=S (stereo not given) | 25.7 µM |
| Cc1ccc(C)c(NC(=O)CCC(=O)N/N=C/c2cc([N+](=O)[O-])ccc2O)c1 | 17.9 µM |
| CCN1CCN(C2=C(NS(=O)(=O)c3ccc(Br)cc3)C(=O)c3ccccc3C2=O)CC1 | 18.2 µM |
| OC(CNCc1ccco1)Cn1c2ccc(Br)cc2c2cc(Br)ccc21 (stereo not given) | 9.67 µM |
| C#CC(=O)N(c1cccc(OC)c1)C(C(=O)NC1CCCC1)c1cccs1 (stereo not given) | 0.9 µM |
| c1ccc(Nc2nc(NCc3ccco3)c3ccccc3n2)cc1 | 4.95 µM |
| CCCCCCCCCCC[N+](C)(C)CC/C=C1/c2ccccc2Sc2ccc(Cl)cc21 | 2.58 µM |
| CC(C)[C@@H]1CC[C@@H](C)C[C@H]1OC(=O)C[n+]1cc(-c2ccc(Cl)cc2)n2c1CCCCC2 | 2.19 µM |
| O=C(CN1C2=NCCCN2c2ccccc21)c1ccc(Br)s1 | 41.9 µM |
| NC1=NC[C@H](CC2CCCCC2)N1CCc1cc(C(F)(F)F)cc(C(F)(F)F)c1 | 6.33 µM |

| Structure (SMILES) | EC50 |
| --- | --- |
| COc1ccc(/C=C/c2cc[n+](C(=O)Cc3ccccc3)cc2)cc1 | 3.92 µM |
| CCN1/C(=C/C(C)=C/c2sc3ccccc3[n+]2CC)Sc2ccccc21 | 0.72 µM |
| C#CCOCCOCCOCCNc1nc(N2CCN(C(=O)[C@H]([C@@H](C)CC)n3cc([C@@H](N)Cc4ccc(O)cc4)nn3)CC2)nc(N2CCN(C(=O)[C@H](Cc3cc4ccccc4[nH]3)n3cc([C@@H](N)CC(C)C)nn3)CC2)n1 | < 0.1 µM |
| C#CCOCCOCCOCCNc1nc(N2CCN(C(=O)CCCCCCCCCCNC(=O)[C@H]([C@@H](C)CC)n3cc(CCCCN=C(N)N)nn3)CC2)nc(N2CCN(C(=O)CCCCCCCCCCNC(=O)[C@H](CO)n3cc(CCCCCN)nn3)CC2)n1 | 7.5 µM |
| Oc1ccc(N=Nc2ccc(Br)cc2)c(O)c1 | 17.8 µM |
| Cc1cc(C2CCCCC2)n(O)c(=O)c1 | 0.63 µM |
| CC1=C([N+](=O)[O-])C(c2cccc(Br)c2)C2=C(N1)c1ccccc1C2=O (stereo not given) | 3.1 µM |
| S=C(NCc1ccc(Cl)cc1)Nc1ccncc1 | 40.1 µM |
| O=C(/C=C/c1ccc(Cl)cc1)NCCCn1ccnc1 | < 0.1 µM |
| O=C(/C=C/c1ccco1)NC(=S)NNC(=O)c1ccco1 | 32.3 µM |
| Oc1[nH]c2ccccc2c1N=NC(=S)N1CCOCC1 | 2.48 µM |
| O=Nc1ccc(O)c2ncccc12 | 2.07 µM |
| Oc1c(C(Nc2ccccn2)c2cccnc2)cc(Cl)c2cccnc12 (stereo not given) | 6.1 µM |
| CN1/C(=C\C=C\C2=[N+](C)c3ccc4ccccc4c3C2(C)C)C(C)(C)c2ccccc21 | 0.2 µM |
| Oc1ccc(CN2CCN(c3ccccc3)CC2)c2cccnc12 | 5.88 µM |
| C#CCOCCOCCOCCNc1nc(N2CCN(C(=O)CCCCCCCCCCNC(=O)[C@H](CCCCN)n3cc(C)nn3)CC2)nc(N2CCN(C(=O)CCCCCCCCCCNC(=O)[C@H](CO)n3cc(CCCSC)nn3)CC2)n1 | 10.4 µM |
| Cc1ccc(NC2=C(Cl)C(=O)OC2OC(=O)c2ccco2)c(C)c1 (stereo not given) | 27.9 µM |
| CCOc1ccc(Nc2nc(N)c3ccccc3n2)cc1 | 6.96 µM |
| CCOc1ccccc1-c1cc(-c2ccccc2)nc2c1c(=O)n(C)c(=O)n2C | < 0.1 µM |
| CCCN(C(=O)CSc1nc2ccccc2n1CC)C1CCS(=O)(=O)C1 (stereo not given) | 14.8 µM |
| CCCCCCCCC[n+]1cccc2c3ccccc3ccc21 | 0.82 µM |
| COc1cccc(Nc2nc(NCC3CCCO3)c3ccccc3n2)c1 (stereo not given) | 2.27 µM |

| Structure (SMILES) | EC50 |
| --- | --- |
| COc1ccc(/C=N/NC(=O)c2ccc3c(c2)OCO3)cc1 | 48.7 µM |
| Nc1nc(Nc2cccc(F)c2)nc2ccccc12 | 8.85 µM |
| CCCCCSc1cc(OC)c(CCNC)cc1OC | 13.9 µM |
| CN1CCN(c2nc3cc(C(F)(F)F)ccc3n3cccc23)CC1 | 42.3 µM |
| COC(=O)CC1C(=O)NCCN1C(=O)CSc1nc2ccc([N+](=O)[O-])cc2s1 (stereo not given) | < 0.1 µM |
| Cc1cccc2c1Sc1ccc(Cl)cc1CC2N1CCNCC1 (stereo not given) | 6.59 µM |
| CN1CCN(c2nc(Nc3ccc(F)cc3)nc(Nc3ccc(F)cc3)n2)CC1 | 12.1 µM |
| Cc1cc(N2CCC(C)CC2)nc2cccc(O)c12 | 26.4 µM |
| CC(C)[C@H](NC(=O)c1ccccc1Cl)C(=O)Nc1nc(-c2ccccn2)cs1 | 6.18 µM |
| CCCCn1c(NS(=O)(=O)c2ccccc2)c(S(=O)(=O)c2ccc(C)cc2)c2nc3ccccc3nc21 | 12 µM |
| Cc1c(CN(C)C)c2c(n1Cc1ccccc1)C(=O)c1ccc(Br)cc1-2 | 21.1 µM |
| COc1ccc(CNCCC(c2ccccc2)c2ccc3c(c2)OCO3)cc1 (stereo not given) | 13.4 µM |
| Oc1cccc(C=NCc2ccccc2)c1O | 38.9 µM |
| CCOC(=O)c1c(-c2ccccc2)oc2ccc(OCC(O)CNCCN(C)C)cc12 (stereo not given) | 5.89 µM |
| O=C1c2ccccc2C2=Nc3ccccc3SC(c3ccccc3F)C12 (stereo not given) | 13.8 µM |
| O=C(C[n+]1cccc(CNC(=O)c2ccc(OC(F)F)cc2)c1)Nc1ccc(SC(F)F)cc1 | 7.22 µM |
| CC[C@H]1OC(=O)C[C@@H](O)[C@H](C)[C@@H](O[C@@H]2O[C@H](C)C[C@H](N(C)C)[C@H]2O)[C@@H](CC=O)C[C@@H](C)C(=O)C=C[C@]2(C)O[C@H]2[C@@H]1C | 12.2 µM |
| O=C(CCN1CCN(c2ccccc2)CC1)c1ccc(Br)cc1 | 38.2 µM |
| O=C(Nc1csc(Cl)c1)c1ccccc1 | < 0.1 µM |
| Oc1ccc(CN2CCN(Cc3ccccc3)CC2)c2cccnc12 | 9.96 µM |
| CCOC(=O)c1c(N)sc(C(=O)Nc2ccc3c(c2)OCO3)c1C | 42.7 µM |
| CCc1ccc2c(c1)Sc1ccccc1CC2N1CCN(C)CC1 (stereo not given) | 11.8 µM |

| Structure (SMILES) | EC50 |
| --- | --- |
| CC(NCc1ccccc1O)C12CC3CC(CC(C3)C1)C2 (stereo not given) | 41.6 µM |
| O=C(Nc1nc(-c2ccccn2)cs1)c1ccc(Cl)s1 | 0.84 µM |
| O=C(CC(=O)c1ccccc1O)c1cccc(F)c1 | 26.2 µM |
| CCCSc1nc2cc(OC)c(OC)cc2c(=N)n1CCCN1CCOCC1 | 45.2 µM |
| O=C1C=C(Nc2ccccc2O)c2ccccc2C1=O | 10.8 µM |
| Nc1cc2c3c(cccc3c1)C(=O)N(CCN1CCCC1)C2=O | 11.3 µM |
| Cc1cccc(Nc2c3c(nc4ccccc24)CCC3)c1 | 6.27 µM |
| Fc1ccc(/C=N/Nc2nc3ccccc3[nH]2)cc1F | 42.8 µM |
| OCCCNc1c2ccccc2nc2ccccc12 | 2.13 µM |
| c1ccc(CNc2nc(N3CCN(Cc4ccccc4)CC3)nc3ccccc23)cc1 | 8.41 µM |
| Cc1ccc(Nc2cc(C)nn2-c2nc(C)cc(=O)[nH]2)cc1 | 0.65 µM |
| COC12C(COC(N)=O)C3=C(C(=O)C(C)=C(N)C3=O)N1CC1C2N1C (stereo not given) | 11.6 µM |
| COc1cc([N+](=O)[O-])cc(/C=N/NC(=O)C(O)(c2ccccc2)c2ccccc2)c1O | 25.4 µM |
| COCCCNC(=S)NNC(=O)c1ccccn1 | 38 µM |
| O=C(Nc1ccc([N+](=O)[O-])cc1Cl)c1cc(Cl)ccc1O | 1.93 µM |
| OC(CNCCc1ccc(Cl)cc1Cl)COc1ccccc1 (stereo not given) | 29.2 µM |
| O=C(N/N=C/c1ccc(O)cc1O)C(=O)N/N=C/c1ccc(O)cc1O | 12 µM |
| Cc1ccc2c(c1)sc(-c1ccc(N(C)C)cc1)[n+]2C | 4.02 µM |
| O=C(Nc1nnc(-c2cccs2)o1)c1cccc(F)c1 | 16.9 µM |
| NCCCC[C@H]1CN=C(N)N1CCC12CC3CC(CC(C3)C1)C2 | 49.4 µM |
| CCCC(=O)NC(c1ccco1)c1cc([N+](=O)[O-])c2cccnc2c1O (stereo not given) | 22.9 µM |
| Clc1ccc(C[n+]2cc(-c3ccc(Cl)cc3)n3c2CCC3)cc1 | 22.7 µM |

| Structure (SMILES) | EC50 |
| --- | --- |
| Cc1cc(C)n(-c2nc(SCCN(C)C)c3c4c(sc3n2)CCCC4)n1 | 3.25 µM |
| O=c1cc(-c2ccccc2)cc(-c2ccccc2)n1O | 14 µM |
| Clc1ccc(CONc2ncnc3nonc23)c(Cl)c1 | 47.7 µM |
| C#CCOCCOCCOCCNc1nc(N2CCN(C(=O)CCCCCCCCCCNC(=O)Cn3cc(C[C@@H](C)O)nn3)CC2)nc(N2CCN(C(=O)CCCCCCCCCCNC(=O)[C@H](CCCN=C(N)N)n3cc(C[C@@H](C)CC)nn3)CC2)n1 | 14.3 µM |
| COc1cccc(CNC23CC4CC(CC(C4)C2)C3)c1OCc1ccccc1 | 22.3 µM |
| O=C(CN1CC(c2ccccc2)CC1=O)N/N=C/c1cc(Br)ccc1O (stereo not given) | 3.85 µM |
| C/C(=N\N=C(N)N)c1ccc(Cl)c(Cl)c1 | 13.3 µM |
| C#CCOCCOCCOCCNc1nc(N2CCN(C(=O)CCCCCCCCCCNC(=O)Cn3cc(CCCCCN)nn3)CC2)nc(N2CCN(C(=O)CCCCCCCCCCNC(=O)[C@H]([C@@H](C)CC)n3cc(CCCCN=C(N)N)nn3)CC2)n1 | 11 µM |
| O=C(/C=C/c1ccccc1Cl)c1ccccc(=O)c1O | 12.9 µM |
| Cn1cnc2cc(NC(=O)c3cccs3)ccc21 | < 0.1 µM |
| CN(C)c1ccc(Nc2nc(N)c3ccccc3n2)cc1 | 6 µM |
| O=C(CNCCC1=CCCCC1)Nc1ccc(N2CCCCCC2)cc1 | 15.6 µM |
| CCN1CCN(Cc2ccc(NC(=O)c3cc(NC(=O)c4cc(-c5ccc(OC)cc5)n[nH]4)cc(OC)c3)cc2C(F)(F)F)CC1 | 3.92 µM |
| CCCCCN=C(N)N/N=C/c1c[nH]c2ccc(OC)cc12 | 2.57 µM |
| CN(C)CC/C=C1\c2ccc(F)cc2Sc2cc(F)c(Cl)cc21 | 11.3 µM |
| Fc1cccc(Nc2c3c(nc4ccccc24)CCC3)c1 | 26.3 µM |
| O=C(Nc1nnc(-c2cccs2)o1)c1cccc(Oc2ccccc2)c1 | 18.6 µM |
| Cc1ccc(-c2cc(-c3ccc(C)cc3)[n+](-c3ccccc3)c(-c3ccc(C)cc3)c2)cc1 | 0.49 µM |
| O=C1C=CC(=O)N1CCCCCCN1C(=O)C=CC1=O | 3.29 µM |
| CN1CCN(CCCN2c3ccccc3Sc3ccc(Cl)cc32)CC1 | 14.7 µM and 10.2 µM |
| Nc1nonc1C(=O)N/N=C/c1cc(Br)ccc1O | 4.18 µM |
| OCCN1CCN(Cc2cc(Cl)c3cccnc3c2O)CC1 | 7.5 µM |
